Data as given in patent publication EP1472347B1, “IMPROVED PROTEIN EXPRESSION IN BACILLUS SUBTILIS” (Danisco US Inc., priority 2002, dated 2003).
No end group written: not given here.

Tested on: aprE transcription
Assay: β-galactosidase assay of the aprE-lacZ transcriptional fusion with synthetic Phr pentapeptides added to the medium
Format: cell-based, B. subtilis AL
Conditions: for aprE transcription (β-galactosidase activity, relative to wild-type): 10 µM pentapeptide in TY medium at 37°C, 4 hours after transition point between exponential and post-exponential growth, strain grown without Phr peptides (WT) set to 100%
Procedure: Figure 1 provides a bar graph depicting the different effects of Phr pentapeptides on aprE transcription. The transcription of the aprE-IacZ gene fusion in B. subtilis AL grown in TY medium at 37°C in the presence of 10 µM of one of the following pentapeptides (see Table II): PhrA (A), PhrC, (C), PhrE (E), PhrF (F), PhrG (G), PhrI (I) or PhrK (K), or in the absence of pentapeptides (-), was measured 4 hours after the transition point between the exponential and post-exponential growth phases. β-galactosidase activities were determined in Units per OD600 (% of WT; aprE-lacZ transcription level of the strain grown in the absence of Phr peptides [WT] is set to 100%).
Figure 2 provides a graph showing that PhrE stimulates aprE transcription. […] Zero time (T0) indicates the transition point between the exponential and post-exponential growth phases.
Overnight cultures were diluted to an optical density (OD600) of 0.1 in fresh TY medium, supplemented with Phr60 pentapeptide, as appropriate. Samples for OD600 readings and β-galactosidase activity determinations were taken at hourly intervals. The assay and the calculation of β-galactosidase activity (expressed as units per OD600) of the samples was performed as known In the art (See, Miller, Experiments In Molecular Genetics, Cold Spring Harbor Laboratory Press, NY, [1982]).
To analyze whether chromosomally-encoded Rap-Phr systems might be Involved in protease production, B. subtilis AL (bearing an aprE-lacZ transcriptional fusion), was grown in TY medium supplemented with synthetic PhrA, -C, -E, -F, -G, -H, -I, or -K pentapeptides (Table II).
In this Example, experiments conducted to further assess the effects of Rap-Phr systems on the transcription of aprE are described. The RapE-PhrE system was used as a model for two reasons. […] To determine the effect of PhrE on aprE transcription during growth, synthetic PhrE was added at two concentrations (1 and 10 µg/ml) to the medium of B. subtilis AL. […] It was also noted that in the latter case, aprE transcription seemed to be improved during all growth phases.

Row | Substance | aprE transcription (β-galactosidase activity, relative to wild-type) | effect on aprE transcription compared with all Phr pentapeptides tested (Figure 1, 10 µM pentapeptide, post-exponential growth phase) | aprE transcription during growth (time course) (synthetic PhrE added at two concentrations (1 and 10 µg/ml) to the medium of B. subtilis AL, TY medium, 37°C, Figure 2)
1 | ERGMT [PhrC] | ~60 % relative to wild-type |  | 
2 | DRVGA [PhrI] | 100-120 % relative to wild-type |  | 
3 | ARNQT [PhrA] | 100-120 % relative to wild-type |  | 
4 | QRGMI [PhrF] | ~135 % relative to wild-type |  | 
5 | EKMIG [PhrG] | 100-120 % relative to wild-type |  | 
6 | ERPVG [PhrK] | 100-120 % relative to wild-type |  | 
7 | SRNVT [PhrE] | ~135 % relative to wild-type | strongest positive effect on aprE transcription | improved by the addition of PhrE only during the post-exponential growth phase in a PhrE concentration-dependent manner
